Legend:
[1] = Molar titration of boric acid/α-hydroxy acid reaction products with 0.1N sodium hydroxide; type: physicochemical; conditions: for pKa: 5.0 ml solution, pH at half of the end point; for Capacity (buffer capacity): titrant required to raise the pH one unit from the pKa value
Protocol: (§1) Reaction products of boric acid and α-hydroxy carboxylic acids were prepared by diluting pre-made stock solution of 0.4M boric acid and 0.4M, 0.6M, and 0.8M α-hydroxy carboxylic acid. [table] Each reaction mixture was allowed to mix for a minimum of two hours before subsequent titration with 0.1N certified sodium hydroxide solution. Two sets of titrations were performed. The first set of titrations, molar titration, 5.0 ml of each solution is titrated to accurately determine end point and the pKa and pH at half of the end point. The second set of titrations, equivalence titration, solution volumes were adjusted to 0.5 milliequivalent and the buffer capacity determined. For simplicity, buffer capacity is reported as the milliequivalents of titrant required to raise the pH one unit from the pKa value. An exception was made for the 1:3 test ratio in which free α-hydroxy acid and the boric acid ester complex could not be distinguished between.

[2] = Equivalence titration (0.5 milliequivalent) of reaction products with 0.1N sodium hydroxide; type: physicochemical; conditions: equivalent titration; for pKa: volume adjusted to 0.5 milliequivalent; for Capacity (buffer capacity): titrant required to raise the pH one unit from the pKa value
Protocol: as §1

Row | Compound | pKa [1] | Capacity (buffer capacity) [1] [milliequivalents] | pKa [2] | Capacity (buffer capacity) [2] [milliequivalents]
1 | O=C(O)CC(O)(CC(=O)O)C(=O)O [Citric Acid 0, Citric Acid] | 4.3 | 39 | 4.3 | 39
2 | O=C(O)CO [Glycolic Acid 0, Glycolic Acid] | 3.9 | 13 | 3.9 | 13
3 | CC(O)C(=O)O (stereo not drawn) [Lactic Acid 0, Lactic Acid] | 4 | 11 | 4 | 11

Reference: patent US12286451B2, “Borate ester complexes of α-hydroxy carboxylic acids and their conjugate base buffers” (Medtech Products Inc., priority 2020, dated 2025)
